Data set [1] has as its system DU145. In words: MTT cytotoxicity on various cancer cells (Table 1). It is filed as cell-based, human. Conditions: for Cytotoxicity (IC50) DU145: human, 48 h. The procedure: (§1) To evaluate anticancer activities of the produced peptides on various types of cancer cells, MTT analysis was performed. Human prostate cancer cell lines (LNCaP, PC3, and DU145), human breast cancer cell lines (MDA-MB-231 and MCF-7), lung cancer cell line (A549), and ovarian cancer cell line (SKOV3) were cultured in RPMI media supplemented with 1% penicillin/streptomycin and 1% fetal bovine serum (all from Life Technologies, Grand Island, NY). The cells were seeded in 96-well plates containing 100 μL of growth media for 24 h. The media were removed, and then 100 μL of the peptide (solvent DPBS) at each concentration was added to each well and incubated at 37° C. for 48 h. After incubation for 48 h, 100 μL of MTT reagent was added to each well. The cells were incubated at 37° C. for 4 h, and then the supernatant was removed. Formazan crystals were dissolved in 100 μL of DMSO with gentle stirring at 37° C. for 10 min. The absorbance per well was measured at 540 nm using a VERSA max microplate reader (Molecular Devices Corp.).

Data set [2] concerns A549. In words: MTT cytotoxicity on various cancer cells (Table 1). Particulars: for Cytotoxicity (IC50) A549: human, 48 h. It is filed as cell-based, human. The procedure:
as §1

In data set [3] the test system is SKOV3. The experiment in a line: MTT cytotoxicity on various cancer cells (Table 1). The data set is classed as cell-based, human. Conditions: for Cytotoxicity (IC50) SKOV3: human, 48 h. How it is done: as §1
For data set [4], the system named is PC3. The experiment in a line: MTT cytotoxicity on various cancer cells (Table 1). Particulars: for Cytotoxicity (IC50) PC3: human, 48 h. It is filed as cell-based, human. The procedure: as §1
For data set [5], the system named is MCF-7. In words: cells. The data set is classed as cell-based, human. Particulars: for Cytotoxicity (IC50) MCF-7: human, 48 h. The procedure:
as §1

Data set [6] deals with LNCaP. The experiment in a line: cells. It is filed as cell-based, human. Conditions: 48 h; for Cytotoxicity (IC50) LNCaP: human. The procedure: as §1
In data set [7] the target is T1, gonadotropin-releasing hormone (GnRH) receptor (UniProt P30968 1-328, limits assumed).
T1 sequence (looked up): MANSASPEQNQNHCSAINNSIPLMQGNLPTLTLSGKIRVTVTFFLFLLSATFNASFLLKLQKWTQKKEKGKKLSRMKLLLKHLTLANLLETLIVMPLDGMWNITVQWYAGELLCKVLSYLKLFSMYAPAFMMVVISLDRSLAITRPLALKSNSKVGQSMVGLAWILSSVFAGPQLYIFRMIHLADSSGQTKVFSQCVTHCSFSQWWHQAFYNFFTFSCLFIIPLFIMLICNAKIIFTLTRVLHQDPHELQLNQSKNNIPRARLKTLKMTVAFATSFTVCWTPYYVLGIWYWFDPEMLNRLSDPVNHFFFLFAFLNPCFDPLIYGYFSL
In words: cell-based or functional assay.

In brackets after ≈: the same amount, converted by molar mass. Where a SMILES comes first, the peptide text is derived from it. [ ]: non-standard residue; d: D form. pGlu = O=C1CC[C@@H](C(=O)O)N1

As for `CC(C)C[C@H](NC(=O)[C@H](C)NC(=O)[C@@H]1CCCN1C(=O)[C@H](CCCNC(=N)N)NC(=O)[C@H](C)NC(=O)[C@@H](N)CCC(=O)O)C(=O)N[C@@H](CC(C)C)C(=O)N[C@@H](CO)C(=O)N[C@H](C(=O)N[C@@H](CCCNC(=N)N)C(=O)N[C@@H](CC(C)C)C(=O)N[C@@H](CCCNC(=N)N)C(=O)N1CCC[C@H]1C(=O)O)[C@@H](C)O` [HS1001] (H-EARPALLSTRLRP-OH; N-terminus and C-terminus assumed), the “Cytotoxicity (IC50) DU145” value in data set [1] worked out at 7.82 ± 0.37 µg/mL. The “Cytotoxicity (IC50) A549” value in data set [2] was 4.18 ± 0.15 µg/mL. Moreover, the “Cytotoxicity (IC50) SKOV3” value in data set [3] was found to be 6.14 ± 0.79 µg/mL. In data set [4], the “Cytotoxicity (IC50) PC3” value was found to be 8.05 ± 1.58 µg/mL. Also, the “Cytotoxicity (IC50) MCF-7” value in data set [5] amounted to 48.26 ± 1.23 µg/mL. For the same molecule, the “Cytotoxicity (IC50) LNCaP” value in data set [6] turned out to be 6.55 ± 0.96 µg/mL.
As to `CCNC(=O)[C@@H]1CCCN1C(=O)[C@@H](NC(=O)[C@H](Cc1ccccc1)NC(=O)[C@H](CCCNC(=N)N)NC(=O)[C@@H]1CCCN1C(=O)[C@H](C)NC(=O)[C@H](Cc1ccc(O)cc1)NC(=O)[C@H](CO)NC(=O)[C@H](Cc1c[nH]c2ccccc12)NC(=O)[C@H](Cc1c[nH]cn1)NC(=O)[C@@H]1CCC(=O)N1)[C@@H](C)CC` [HS1003] ([pGlu]HWSYAPRFIP-NHEt; C-terminus assumed), the “Cytotoxicity (IC50) DU145” value in data set [1] was 12.37 ± 0.31 µg/mL. Further, in data set [2], the “Cytotoxicity (IC50) A549” value was 9.48 ± 0.08 µg/mL. Moreover, in data set [3], the “Cytotoxicity (IC50) SKOV3” value came to 5.79 ± 0.38 µg/mL. Also, in data set [4], the “Cytotoxicity (IC50) PC3” value was 24.05 ± 1.13 µg/mL. In addition, in data set [5], the “Cytotoxicity (IC50) MCF-7” value was found to be 47.28 ± 2.05 µg/mL. In addition, the “Cytotoxicity (IC50) LNCaP” value in data set [6] was 10.9 ± 0.48 µg/mL.
As for `CCNC(=O)[C@@H]1CCCN1C(=O)[C@@H](NC(=O)[C@H](Cc1ccccc1)NC(=O)[C@H](C)NC(=O)[C@H](CC(C)C)NC(=O)[C@H](CCCNC(=N)N)NC(=O)[C@H](Cc1ccc(O)cc1)NC(=O)[C@H](CO)NC(=O)[C@H](Cc1c[nH]c2ccccc12)NC(=O)[C@H](Cc1c[nH]cn1)NC(=O)[C@@H]1CCC(=O)N1)[C@@H](C)CC` [HS1004] ([pGlu]HWSYRLAFIP-NHEt; C-terminus assumed), in data set [1], the “Cytotoxicity (IC50) DU145” value was 17.54 ± 0.74 µg/mL. In data set [3], the “Cytotoxicity (IC50) SKOV3” value stood at 5.19 ± 0.82 µg/mL. Moreover, the “Cytotoxicity (IC50) PC3” value in data set [4] worked out at 16.49 ± 0.74 µg/mL. Besides, the “Cytotoxicity (IC50) MCF-7” value in data set [5] is 37.47 ± 1.58 µg/mL. Further, the “Cytotoxicity (IC50) LNCaP” value in data set [6] came out at 9.97 ± 0.85 µg/mL.
Consider `CC(C)C[C@H](NC(=O)[C@H](C)NC(=O)[C@@H]1CCCN1C(=O)[C@H](CCCNC(=N)N)NC(=O)[C@H](C)NC(=O)[C@@H](N)CCC(=O)O)C(=O)N[C@@H](CC(C)C)C(=O)N[C@@H](CO)C(=O)N[C@H](C(=O)N[C@@H](CCCNC(=N)N)C(=O)N[C@@H](Cc1ccccc1)C(=O)N[C@@H](CCCNC(=N)N)C(=O)N1CCC[C@H]1C(=O)N[C@@H](CCCCN)C(=O)O)[C@@H](C)O` [HS1005] (H-EARPALLSTRFRPK-OH; N-terminus and C-terminus assumed), for which the “Cytotoxicity (IC50) DU145” value in data set [1] was found to be 16.17 ± 1.28 µg/mL. In data set [2], the “Cytotoxicity (IC50) A549” value was 14.75 ± 0.83 µg/mL. Besides, in data set [3], the “Cytotoxicity (IC50) SKOV3” value was 14.08 ± 1.04 µg/mL. The “Cytotoxicity (IC50) PC3” value in data set [4] amounted to 13.31 ± 1.05 µg/mL. Besides, in data set [5], the “Cytotoxicity (IC50) MCF-7” value was 44.15 ± 2.63 µg/mL. Further, the “Cytotoxicity (IC50) LNCaP” value in data set [6] turned out to be 11.23 ± 1.01 µg/mL.
As to `CC(C)C[C@H](NC(=O)CNC(=O)[C@@H](NC(=O)[C@H](CO)NC(=O)[C@H](CC(C)C)NC(=O)[C@H](CC(C)C)NC(=O)[C@H](C)NC(=O)[C@@H]1CCCN1C(=O)[C@H](CCCNC(=N)N)NC(=O)[C@H](C)NC(=O)[C@@H](N)CCC(=O)O)[C@@H](C)O)C(=O)N[C@@H](CCCNC(=N)N)C(=O)N1CCC[C@H]1C(=O)N[C@@H](CCCCN)C(=O)O` [HS1006] (H-EARPALLSTGLRPK-OH; N-terminus and C-terminus assumed), in data set [1], the “Cytotoxicity (IC50) DU145” value is 19.46 ± 0.26 µg/mL. For the same molecule, the “Cytotoxicity (IC50) A549” value in data set [2] was determined as 10.68 ± 0.25 µg/mL. The “Cytotoxicity (IC50) SKOV3” value in data set [3] turned out to be 13.91 ± 1.17 µg/mL. Moreover, the “Cytotoxicity (IC50) PC3” value in data set [4] turned out to be 15.2 ± 1.12 µg/mL. Besides, the “Cytotoxicity (IC50) MCF-7” value in data set [5] is 55.24 ± 2.41 µg/mL. The “Cytotoxicity (IC50) LNCaP” value in data set [6] turned out to be 14.17 ± 0.47 µg/mL.
For orientation: IC50 means the concentration that gives 50% inhibition. For the molecule `CC(=O)O[C@H]1C(=O)[C@@]2(C)[C@H]([C@H](OC(=O)c3ccccc3)[C@]3(O)C[C@H](OC(=O)[C@H](O)[C@@H](NC(=O)c4ccccc4)c4ccccc4)C(C)=C1C3(C)C)[C@]1(OC(C)=O)CO[C@@H]1C[C@@H]2O` [PTX, Paclitaxel, reference compound], the IC50 was 0.73 ± 0.04 µg/mL (≈ 0.855 µM) in data set [1] (Homo sapiens, DU-145, 48 h, read-out: Cytotoxicity (IC50) DU145); 3.62 ± 0.04 µg/mL (≈ 4.24 µM) in data set [2] (Homo sapiens, A549, 48 h, read-out: Cytotoxicity (IC50) A549); 5.41 ± 0.19 µg/mL (≈ 6.34 µM) in data set [3] (Homo sapiens, SK-OV-3, 48 h, read-out: Cytotoxicity (IC50) SKOV3); 59.4 ± 3.21 µg/mL (≈ 69.6 µM) in data set [4] (Homo sapiens, PC-3, 48 h, read-out: Cytotoxicity (IC50) PC3); 9.27 ± 1.12 µg/mL (≈ 10.9 µM) in data set [5] (Homo sapiens, MCF7, 48 h, read-out: Cytotoxicity (IC50) MCF-7); 0.81 ± 0.09 µg/mL (≈ 0.949 µM) in data set [6] (Homo sapiens, LNCaP, read-out: Cytotoxicity (IC50) LNCaP).

B1: peptide HS1002 (peptide)
peptide: [pGlu]HWSYRLRFIP-NHEt
SMILES: CCNC(=O)[C@@H]1CCCN1C(=O)[C@@H](NC(=O)[C@H](Cc1ccccc1)NC(=O)[C@H](CCCNC(=N)N)NC(=O)[C@H](CC(C)C)NC(=O)[C@H](CCCNC(=N)N)NC(=O)[C@H](Cc1ccc(O)cc1)NC(=O)[C@H](CO)NC(=O)[C@H](Cc1c[nH]c2ccccc12)NC(=O)[C@H](Cc1c[nH]cn1)NC(=O)[C@@H]1CCC(=O)N1)[C@@H](C)CC
As for B1, the “CRE-luciferase activity in HEK293-GnRHR cells” value in data set [7] was determined as 2 fold.

The values above are taken from patent US20240247031A1, “COMPOSITION FOR TREATING CANCER CONTAINING TELOMERASE-TARGETING GNRH ANTAGONIST-DERIVED PEPTIDE HS1002” (Research & Business Foundation Sungkyunkwan University, priority 2023, published 2024).
